Literature values, collected in paper PMC2096531 (Purinergic Signalling, 2005).

Target: human A2B receptors
Details: read-out: EC50 A2B, agonist

## CCNC(=O)[C@H]1O[C@@H](n2cnc3c(N)nc(C#CC(O)c4ccccc4)nc32)[C@H](O)[C@@H]1O (stereo partly drawn) [(R,S)-PHPNECA, (R,S)-2-phenyhydroxypropynyl-N-ethylcarboxamidoadenosine]
  EC50: 1100 nM
